Activity calls are given as the source filed them. The calls are words filed in the database; no cut-off is given here.
What was measured:
[1] = biological target: MAP kinase-interacting serine/threonine-protein kinase 2 (Homo sapiens) (UniProt Q9HBH9); experiment: Inhibition of MNK2 (unknown origin) assessed as residual activity at 500 nM
[2] = biological target: Dual specificity protein kinase CLK1 (Homo sapiens) (UniProt P49759); experiment: Inhibition of CLK1 (unknown origin) assessed as residual activity at 500 nM
[3] = biological target: Leucine-rich repeat serine/threonine-protein kinase 2 (Homo sapiens) (UniProt Q5S007); experiment: Inhibition of LRRK2 (unknown origin) assessed as residual activity at 500 nM
[4] = system: Receptor-type tyrosine-protein kinase FLT3 (Homo sapiens), P36888 [D835Y]; experiment: Inhibition of FLT3 D835Y (unknown origin) assessed as residual activity at 500 nM
[5] = biological target: Dual specificity tyrosine-phosphorylation-regulated kinase 1B (Homo sapiens) (UniProt Q9Y463); experiment: Inhibition of DYRK1B (unknown origin) assessed as residual activity at 500 nM
[6] = biological target: Maternal embryonic leucine zipper kinase (Homo sapiens) (UniProt Q14680); experiment: Inhibition of MELK (unknown origin) assessed as residual activity at 500 nM
[7] = biological target: Rho-associated protein kinase 2 (Homo sapiens) (UniProt O75116); experiment: Inhibition of ROCK2 (unknown origin) assessed as residual activity at 500 nM
[8] = biological target: NT-3 growth factor receptor (Homo sapiens) (UniProt Q16288); experiment: Inhibition of TRKC (unknown origin) assessed as residual activity at 500 nM
CDK2/Cyclin A1 = CDK2/Cyclin A1 (Homo sapiens, UniProt P24941); format: protein-complex assay
Description: Inhibition of CDK2/Cyclin A1 (unknown origin) at 1 uM using histone H1 as substrate preincubated for 20 mins followed by 33P-ATP addition and measured after 2 hrs by filter binding method

[9] = system: Receptor-type tyrosine-protein kinase FLT3 (Homo sapiens), P36888 [UNDEFINED MUTATION]; experiment: Inhibition of FLT3 ITD (unknown origin) assessed as residual activity at 500 nM
MV4-11 [10] = experiment: cells; details: Homo sapiens, MV4-11, 72 h
Description: Antiproliferative activity against human MV4-11 cells assessed as cell death measured after 72 hrs by resazurin dye based assay

[11] = biological target: Ribosomal protein S6 kinase alpha-4 (Homo sapiens) (UniProt O75676); experiment: Inhibition of MSK2 (unknown origin) assessed as residual activity at 500 nM
K562 = experiment: cells; details: Homo sapiens, K562, 72 h
Description: Antiproliferative activity against human K562 cells assessed as cell death measured after 72 hrs by resazurin dye based assay

[12] = biological target: Lymphokine-activated killer T-cell-originated protein kinase (Homo sapiens) (UniProt Q96KB5); experiment: Inhibition of TOPK (unknown origin) assessed as residual activity at 500 nM
[13] = biological target: cGMP-dependent protein kinase 1 (Homo sapiens) (UniProt Q13976); experiment: Inhibition of PKG1alpha (unknown origin) assessed as residual activity at 500 nM
[14] = biological target: Ribosomal protein S6 kinase beta-1 (Homo sapiens) (UniProt P23443); experiment: Inhibition of p70S6K (unknown origin) assessed as residual activity at 500 nM
[15] = biological target: CDK2/Cyclin A1 (Homo sapiens) (UniProt P24941+P78396); experiment: Inhibition of CDK2/cyclin A1 (unknown origin) assessed as residual activity at 500 nM; format: protein-complex assay
MV4-11 [16] = experiment: Induction of apoptosis in human MV4-11 cells assessed as increase in cleaved PARP1 level at 100 nM incubated for 24 hrs by Western blot analysis; format: functional, cell-based
[17] = biological target: Cyclin-dependent kinase 2/cyclin E1 (Homo sapiens, UniProt P24941); experiment: Inhibition of CDK2/cyclin E1 (unknown origin) in presence of [32P]gammaATP by image analyser; format: protein-complex assay
MV4-11 [18] = experiment: Induction of apoptosis in human MV4-11 cells assessed as caspase 3 activation using fluorescent substrate Ac-DEVD-AMC at 100 nM incubated for 24 hrs by Western blot analysis; format: functional, cell-based
[19] = biological target: Receptor-type tyrosine-protein kinase FLT3 (Homo sapiens) (UniProt P36888); experiment: Inhibition of FLT3 in human MV4-11 cells assessed as ERK1/2 phosphorylation at 20 to 100 nM incubated for 1 hrs by Western blot analysis; format: cell-based; details: dose 20-100 nM
MOLM-14 [20] = experiment: Antiproliferative activity against human MOLM-14 cells harboring D835Y mutant assessed as cell death measured after 72 hrs by resazurin dye based assay; format: functional; details: MOLM-14, 72 h
BaF3 [21] = experiment: Antiproliferative activity against mouse BaF3 cells harboring FLt3 ITD mutant assessed as cell death measured after 72 hrs by resazurin dye based assay; format: functional; details: BaF3, 72 h
[22] = biological target: Receptor-type tyrosine-protein kinase FLT3 (Homo sapiens, UniProt P36888, ITD)
SEM cells = experiment: Antiproliferative activity against human SEM cells assessed as cell death measured after 72 hrs by resazurin dye based assay; format: functional
BaF3 [23] = experiment: Antiproliferative activity against mouse BaF3 cells assessed as cell death measured after 72 hrs by resazurin dye based assay; format: functional; details: BaF3, 72 h
CDK9/cyclin T1 = CDK9/cyclin T1 (Homo sapiens, UniProt P50750); experiment: Inhibition of CDK9/cyclin T1 (unknown origin) in presence of [32P]gammaATP by image analyser; format: protein-complex assay
MV4-11 [24] = experiment: Induction of apoptosis in human MV4-11 cells assessed as effect on Bcl2 level at 100 nM incubated for 24 hrs by Western blot analysis; format: functional, cell-based
MV4-11 [25] = experiment: Induction of apoptosis in human MV4-11 cells assessed as decrease in MCL1 level at 100 nM incubated for 24 hrs by Western blot analysis; format: functional, cell-based
THP-1 = experiment: Antiproliferative activity against human THP-1 cells assessed as cell death measured after 72 hrs by resazurin dye based assay; format: functional; details: THP-1, 72 h
[26] = biological target: Cyclin-dependent kinase 1/cyclin B1 (Homo sapiens, UniProt P06493); experiment: Inhibition of CDK1/cyclin B1 (unknown origin) in presence of [32P]gammaATP by image analyser; format: protein-complex assay
[27] = biological target: Receptor-type tyrosine-protein kinase FLT3 (Homo sapiens) (UniProt P36888); experiment: Inhibition of FLT3 in human MV4-11 cells assessed as STAT5 phosphorylation at Y694 at 20 to 100 nM incubated for 1 hrs by Western blot analysis; format: cell-based; details: dose 20-100 nM
MOLM-13 = experiment: Antiproliferative activity against human MOLM-13 cells assessed as cell death measured after 72 hrs by resazurin dye based assay; format: functional; details: MOLM-13, 72 h
MOLM-14 [28] = experiment: Antiproliferative activity against human MOLM-14 cells harboring F691L mutant assessed as cell death measured after 72 hrs by resazurin dye based assay; format: functional; details: MOLM-14, 72 h
CCRF-CEM = experiment: Antiproliferative activity against human CCRF-CEM cells assessed as cell death measured after 72 hrs by resazurin dye based assay; format: functional
[29] = biological target: Cyclin-dependent kinase 4/cyclin D1 (Homo sapiens, UniProt P11802); experiment: Inhibition of CDK4/cyclin D1 (unknown origin) in presence of [32P]gammaATP by image analyser; format: protein-complex assay
[30] = biological target: Receptor-type tyrosine-protein kinase FLT3 (Homo sapiens) (UniProt P36888); experiment: Inhibition of FLT3 autophosphorylation in human MV4-11 cells at 20 to 100 nM incubated for 1 hrs by Western blot analysis; format: cell-based; details: dose 20-100 nM
MOLM-14 [31] = experiment: Antiproliferative activity against human MOLM-14 cells assessed as cell death measured after 72 hrs by resazurin dye based assay; format: functional; details: MOLM-14, 72 h
CDK2/Cyclin A2 = CDK2/Cyclin A2 (Homo sapiens, UniProt P24941); experiment: Inhibition of CDK2/cyclin A2 (unknown origin) in presence of [32P]gammaATP by image analyser; format: protein-complex assay
MV4-11 [32] = experiment: Induction of apoptosis in human MV4-11 cells assessed as caspase 7 activation using fluorescent substrate Ac-DEVD-AMC at 100 nM incubated for 24 hrs by Western blot analysis; format: functional, cell-based
[33] = biological target: T1, Receptor-type tyrosine-protein kinase FLT3 (Homo sapiens, UniProt P36888); experiment: Inhibition of wild type FLT3 (unknown origin) using AGLT peptide substrate in presence of [32P]gammaATP by image analyser
T1 sequence (P36888 whole entry): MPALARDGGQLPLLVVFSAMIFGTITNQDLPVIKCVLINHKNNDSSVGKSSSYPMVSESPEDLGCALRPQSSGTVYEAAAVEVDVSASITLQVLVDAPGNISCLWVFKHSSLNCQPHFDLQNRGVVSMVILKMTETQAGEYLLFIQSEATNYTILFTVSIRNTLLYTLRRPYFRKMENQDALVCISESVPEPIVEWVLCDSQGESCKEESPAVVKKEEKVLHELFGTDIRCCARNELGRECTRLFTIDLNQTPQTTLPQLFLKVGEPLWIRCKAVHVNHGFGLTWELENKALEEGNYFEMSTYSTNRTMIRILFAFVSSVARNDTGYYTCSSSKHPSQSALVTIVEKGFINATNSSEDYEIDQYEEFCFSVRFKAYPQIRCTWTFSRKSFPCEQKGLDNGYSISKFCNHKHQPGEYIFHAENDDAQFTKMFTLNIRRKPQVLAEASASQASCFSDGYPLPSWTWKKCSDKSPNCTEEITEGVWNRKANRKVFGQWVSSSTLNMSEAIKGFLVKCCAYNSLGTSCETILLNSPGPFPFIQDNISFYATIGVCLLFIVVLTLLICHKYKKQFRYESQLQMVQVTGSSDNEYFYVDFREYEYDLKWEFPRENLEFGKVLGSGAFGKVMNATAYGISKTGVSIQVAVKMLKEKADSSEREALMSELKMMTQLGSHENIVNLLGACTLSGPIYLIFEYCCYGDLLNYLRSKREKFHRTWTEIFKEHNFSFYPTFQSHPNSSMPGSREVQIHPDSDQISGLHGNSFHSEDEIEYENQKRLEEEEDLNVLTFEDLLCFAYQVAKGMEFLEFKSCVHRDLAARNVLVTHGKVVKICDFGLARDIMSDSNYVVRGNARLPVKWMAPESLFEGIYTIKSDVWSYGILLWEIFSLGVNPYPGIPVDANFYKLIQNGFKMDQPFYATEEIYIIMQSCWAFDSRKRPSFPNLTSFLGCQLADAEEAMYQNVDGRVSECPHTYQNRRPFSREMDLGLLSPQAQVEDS

U-937 = experiment: Antiproliferative activity against human U-937 cells assessed as cell death measured after 72 hrs by resazurin dye based assay; format: functional; details: U-937, 72 h

Cyclin-dependent kinase 4/cyclin D1, sequence (P11802 whole entry): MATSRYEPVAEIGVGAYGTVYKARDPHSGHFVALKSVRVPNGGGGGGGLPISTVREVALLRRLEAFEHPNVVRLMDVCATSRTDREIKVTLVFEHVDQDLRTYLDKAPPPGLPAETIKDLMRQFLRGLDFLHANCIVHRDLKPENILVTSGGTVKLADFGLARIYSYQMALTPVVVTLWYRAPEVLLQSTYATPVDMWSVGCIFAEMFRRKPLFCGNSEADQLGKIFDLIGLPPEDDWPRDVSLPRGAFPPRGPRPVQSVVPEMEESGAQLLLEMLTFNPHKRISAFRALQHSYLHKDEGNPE
Cyclin-dependent kinase 4/cyclin D1, sequence (P24385 whole entry, further chain): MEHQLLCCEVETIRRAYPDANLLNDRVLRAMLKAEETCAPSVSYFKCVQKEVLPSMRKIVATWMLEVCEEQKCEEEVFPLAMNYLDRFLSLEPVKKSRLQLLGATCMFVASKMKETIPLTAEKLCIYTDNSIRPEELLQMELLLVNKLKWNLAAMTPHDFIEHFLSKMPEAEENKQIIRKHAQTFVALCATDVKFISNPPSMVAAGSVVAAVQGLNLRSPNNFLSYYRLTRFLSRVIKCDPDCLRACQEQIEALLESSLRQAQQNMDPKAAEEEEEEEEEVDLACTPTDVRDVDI
Cyclin-dependent kinase 1/cyclin B1, sequence (P06493 whole entry): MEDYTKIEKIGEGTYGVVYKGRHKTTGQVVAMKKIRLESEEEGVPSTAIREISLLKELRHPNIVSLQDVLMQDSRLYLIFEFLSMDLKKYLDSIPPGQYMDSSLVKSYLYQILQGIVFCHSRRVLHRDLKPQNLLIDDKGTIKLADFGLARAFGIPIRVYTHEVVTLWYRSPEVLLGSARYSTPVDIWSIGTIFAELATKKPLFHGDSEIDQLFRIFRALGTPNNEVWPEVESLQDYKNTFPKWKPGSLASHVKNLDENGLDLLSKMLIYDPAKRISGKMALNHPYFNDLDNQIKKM
Cyclin-dependent kinase 1/cyclin B1, sequence (P14635 whole entry, further chain): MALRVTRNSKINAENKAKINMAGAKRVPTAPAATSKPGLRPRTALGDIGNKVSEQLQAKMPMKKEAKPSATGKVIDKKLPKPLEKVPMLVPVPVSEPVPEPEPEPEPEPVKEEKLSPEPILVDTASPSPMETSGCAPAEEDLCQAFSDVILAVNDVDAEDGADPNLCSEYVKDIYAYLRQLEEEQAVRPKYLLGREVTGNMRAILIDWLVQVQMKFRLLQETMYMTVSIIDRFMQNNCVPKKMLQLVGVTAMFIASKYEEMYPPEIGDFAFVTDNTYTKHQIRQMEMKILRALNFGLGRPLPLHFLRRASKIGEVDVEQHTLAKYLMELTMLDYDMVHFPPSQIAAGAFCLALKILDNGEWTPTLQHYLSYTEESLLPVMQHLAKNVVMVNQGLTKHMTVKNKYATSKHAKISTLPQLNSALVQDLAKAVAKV
CDK9/cyclin T1, sequence (O60563 whole entry): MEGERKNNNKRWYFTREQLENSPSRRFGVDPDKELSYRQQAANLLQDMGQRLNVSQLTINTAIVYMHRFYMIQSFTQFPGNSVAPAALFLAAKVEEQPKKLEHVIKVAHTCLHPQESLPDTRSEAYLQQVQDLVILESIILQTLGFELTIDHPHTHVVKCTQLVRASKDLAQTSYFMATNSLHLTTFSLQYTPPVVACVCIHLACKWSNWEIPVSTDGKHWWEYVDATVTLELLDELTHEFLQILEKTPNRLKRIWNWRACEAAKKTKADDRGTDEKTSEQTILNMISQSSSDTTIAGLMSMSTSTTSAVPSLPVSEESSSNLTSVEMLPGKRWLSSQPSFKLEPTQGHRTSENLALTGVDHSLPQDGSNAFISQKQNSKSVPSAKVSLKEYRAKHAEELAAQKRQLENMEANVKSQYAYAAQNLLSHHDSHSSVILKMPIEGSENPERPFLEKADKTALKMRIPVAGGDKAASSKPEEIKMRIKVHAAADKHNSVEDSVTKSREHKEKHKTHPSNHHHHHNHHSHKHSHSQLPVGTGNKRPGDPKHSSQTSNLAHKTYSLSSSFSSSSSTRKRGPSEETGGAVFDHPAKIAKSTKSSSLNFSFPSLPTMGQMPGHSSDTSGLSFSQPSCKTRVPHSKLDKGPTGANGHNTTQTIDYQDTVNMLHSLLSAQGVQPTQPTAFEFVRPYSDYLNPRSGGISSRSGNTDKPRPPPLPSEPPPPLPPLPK
CDK9/cyclin T1, sequence (P50750 whole entry): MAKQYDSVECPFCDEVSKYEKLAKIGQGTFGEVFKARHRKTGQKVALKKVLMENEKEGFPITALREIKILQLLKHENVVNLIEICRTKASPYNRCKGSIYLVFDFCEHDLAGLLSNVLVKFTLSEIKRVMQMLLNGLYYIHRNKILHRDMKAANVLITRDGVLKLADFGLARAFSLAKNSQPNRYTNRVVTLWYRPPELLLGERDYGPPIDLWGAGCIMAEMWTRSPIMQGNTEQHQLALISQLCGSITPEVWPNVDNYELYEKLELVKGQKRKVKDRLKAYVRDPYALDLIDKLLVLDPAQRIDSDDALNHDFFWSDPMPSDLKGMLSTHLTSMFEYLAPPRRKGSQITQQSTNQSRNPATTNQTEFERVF
Maternal embryonic leucine zipper kinase (Homo sapiens), sequence (Q14680 whole entry, looked up): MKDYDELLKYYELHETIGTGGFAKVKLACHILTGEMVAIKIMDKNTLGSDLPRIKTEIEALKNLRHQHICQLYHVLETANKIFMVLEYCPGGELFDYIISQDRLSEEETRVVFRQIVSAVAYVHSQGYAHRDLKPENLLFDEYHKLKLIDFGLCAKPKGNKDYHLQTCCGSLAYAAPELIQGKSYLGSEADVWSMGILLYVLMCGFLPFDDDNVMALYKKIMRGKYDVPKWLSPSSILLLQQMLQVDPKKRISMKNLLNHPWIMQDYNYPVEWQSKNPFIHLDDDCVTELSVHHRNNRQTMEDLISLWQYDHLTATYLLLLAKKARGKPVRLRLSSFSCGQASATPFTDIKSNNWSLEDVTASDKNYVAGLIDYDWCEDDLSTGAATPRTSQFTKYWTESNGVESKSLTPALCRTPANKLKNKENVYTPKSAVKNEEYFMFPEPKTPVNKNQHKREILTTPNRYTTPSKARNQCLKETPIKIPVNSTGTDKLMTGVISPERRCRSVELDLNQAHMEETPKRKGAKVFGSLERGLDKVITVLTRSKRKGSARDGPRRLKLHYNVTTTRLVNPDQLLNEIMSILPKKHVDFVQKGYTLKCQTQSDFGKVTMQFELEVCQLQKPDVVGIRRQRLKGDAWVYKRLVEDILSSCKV
Lymphokine-activated killer T-cell-originated protein kinase (Homo sapiens), sequence (Q96KB5 whole entry): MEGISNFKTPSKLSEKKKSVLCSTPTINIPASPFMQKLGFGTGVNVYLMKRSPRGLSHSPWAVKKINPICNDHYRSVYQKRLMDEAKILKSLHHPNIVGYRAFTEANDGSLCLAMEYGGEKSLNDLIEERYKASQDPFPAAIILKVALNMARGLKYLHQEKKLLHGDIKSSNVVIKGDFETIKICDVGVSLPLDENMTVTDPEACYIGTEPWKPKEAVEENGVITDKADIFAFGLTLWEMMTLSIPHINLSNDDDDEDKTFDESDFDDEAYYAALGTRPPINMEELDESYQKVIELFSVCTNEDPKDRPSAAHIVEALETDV
Dual specificity protein kinase CLK1 (Homo sapiens), sequence (P49759 whole entry, looked up): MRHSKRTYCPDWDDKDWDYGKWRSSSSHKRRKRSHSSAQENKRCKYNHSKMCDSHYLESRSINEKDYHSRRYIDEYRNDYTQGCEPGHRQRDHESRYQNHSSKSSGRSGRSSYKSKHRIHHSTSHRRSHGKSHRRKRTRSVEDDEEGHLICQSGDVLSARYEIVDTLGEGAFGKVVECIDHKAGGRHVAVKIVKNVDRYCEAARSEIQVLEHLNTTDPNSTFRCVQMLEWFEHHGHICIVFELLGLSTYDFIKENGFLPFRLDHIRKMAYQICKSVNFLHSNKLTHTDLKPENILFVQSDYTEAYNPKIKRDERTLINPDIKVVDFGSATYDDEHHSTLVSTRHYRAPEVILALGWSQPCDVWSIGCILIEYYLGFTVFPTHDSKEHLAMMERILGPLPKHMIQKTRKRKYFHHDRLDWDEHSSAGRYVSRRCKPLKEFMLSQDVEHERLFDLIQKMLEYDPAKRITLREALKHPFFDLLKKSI
Dual specificity tyrosine-phosphorylation-regulated kinase 1B (Homo sapiens), sequence (Q9Y463 whole entry, looked up): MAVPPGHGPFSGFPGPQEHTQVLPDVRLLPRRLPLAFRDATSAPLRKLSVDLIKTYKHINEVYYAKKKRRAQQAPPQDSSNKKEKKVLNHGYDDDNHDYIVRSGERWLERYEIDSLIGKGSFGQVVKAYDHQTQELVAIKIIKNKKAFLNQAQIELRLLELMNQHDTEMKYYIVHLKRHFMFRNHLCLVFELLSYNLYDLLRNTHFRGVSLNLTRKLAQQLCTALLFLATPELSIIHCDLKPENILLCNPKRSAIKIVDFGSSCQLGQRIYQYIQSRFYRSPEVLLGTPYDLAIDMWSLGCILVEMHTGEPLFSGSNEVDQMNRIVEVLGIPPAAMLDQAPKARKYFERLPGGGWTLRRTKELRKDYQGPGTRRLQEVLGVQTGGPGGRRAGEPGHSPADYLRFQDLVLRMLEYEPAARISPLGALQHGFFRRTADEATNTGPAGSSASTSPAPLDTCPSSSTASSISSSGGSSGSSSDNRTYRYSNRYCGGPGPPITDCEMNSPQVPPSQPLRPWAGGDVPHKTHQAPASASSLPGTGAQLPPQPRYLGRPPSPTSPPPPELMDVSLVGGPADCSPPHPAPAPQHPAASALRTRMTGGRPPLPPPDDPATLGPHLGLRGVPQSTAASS

Row | SMILES | IC50 (CDK2/Cyclin A1) | IC50 (MV4-11 [10]) | IC50 (K562) | Activity (MV4-11 [16]) | IC50 [17] | Activity (MV4-11 [18]) | inhibition [19] | IC50 (MOLM-14 [20]) | IC50 (BaF3 [21]) | IC50 [22] | IC50 (SEM cells) | IC50 (BaF3 [23]) | IC50 (CDK9/cyclin T1) | Activity (MV4-11 [24]) | Activity (MV4-11 [25]) | IC50 (THP-1) | IC50 [26] | inhibition [27] | IC50 (MOLM-13) | IC50 (MOLM-14 [28]) | other results
1 | FC(F)(F)c1n[nH]cc1-c1nc2ccc3[nH]ncc3c2c2c1CCCC2 | 39 nM | 71 nM | 8590 nM |  |  |  |  |  |  |  |  |  |  |  |  |  |  |  |  |  | Activity [1]: < 25%; Activity [2]: 4%; Activity [3]: 4%; Activity [4]: < 2.5%; Activity [5]: 4%; Activity [6]: 4%; Activity [7]: < 25%; Activity [8]: 4%; Activity [9]: < 2.5%; Activity [11]: < 25%; Activity [12]: < 25%; Activity [13]: < 25%; Activity [14]: < 25%; Activity [15]: < 25%
2 | OCc1n[nH]c2ccc3nc(-c4c[nH]nc4C(F)(F)F)c4c(c3c12)CCCC4 | 141 nM | 30 nM | 9720 nM | Active | 102 nM | Active | inactive | 16 nM | 124 nM | 3 nM | 437 nM | 16100 nM | > 1000 nM | Active | Active | 16900 nM | 203 nM | Active | 18 nM | 91 nM | IC50 (CCRF-CEM): 5210 nM; IC50 [29]: > 1000 nM; inhibition [30]: Active; IC50 (MOLM-14 [31]): 36 nM; IC50 (CDK2/Cyclin A2): 141 nM; Activity (MV4-11 [32]): Active; IC50 [33]: 32 nM; IC50 (U-937): 4820 nM
3 | Fc1cc2[nH]ncc2c2c3c(c(-c4c[nH]nc4C(F)(F)F)nc12)CCCC3 | 39 nM | 7 nM | 7230 nM | Active | 33 nM | Active | inactive | 17 nM | 42 nM | 12 nM | 180 nM | 3880 nM | 538 nM | Active | Active | 3460 nM | 52 nM | Active | 6 nM | 42 nM | IC50 (CCRF-CEM): 3740 nM; IC50 [29]: > 1000 nM; inhibition [30]: Active; IC50 (MOLM-14 [31]): 28 nM; IC50 (CDK2/Cyclin A2): 39 nM; Activity (MV4-11 [32]): Active; IC50 [33]: 31 nM; IC50 (U-937): 2240 nM

Reference: ChEMBL document CHEMBL4834472 (J Med Chem, 2021)
